Measured values published in patent US7618816B2, “Metal-binding therapeutic peptides” (Ontherix, Inc., priority 2005, dated 2009).
“And” between values parts separate entries of the source, which are not always exact repeats. Equal entries are not always repeated. Where a SMILES comes first, the peptide text is derived from it. Where no end group is shown, it is not given here. The star is where a group is joined. Biotin = O=C1N[C@H]2[C@H](CS[C@H]2CCCCC(=O)*)N1

Key:
CCRF-CEM = test: Cytotoxicity of MBD therapeutic peptides; type: cell-based, human; details: relative to equal dose of control MBD peptide, only p < 0.05 shown, 1-4 experiments
From the text: (§1) Also, peptides such as NFKB and CSK are of interest, targeting stress-coping mechanisms such as inflammation. The breast cancer lines tested are HS578T, MX-1, MDA-MB231, MDA-MB435 and MCF7. Leukemia cell lines tested for cytotoxicity effects with these MBD-tagged peptides are CCRF-CEM, RPMI-8226 and MOLT-4. Overall, MCF-7 and CCRF-CEM yield the most consistent data and the strongest effect across the board (Table 12). In addition, elevated levels of cytotoxicity are observed when multiple peptides are combined while keeping the overall amount of peptide added constant. Cytotoxicity increases with the number of peptides added per cocktail and is further enhanced by combining peptide cocktail treatment with paclitaxel.

MCF-7 = test: Cytotoxicity of MBD therapeutic peptides; type: cell-based, human; details: relative to equal dose of control MBD peptide, only p < 0.05 shown, 1-4 experiments
From the text: as §1

MOLT-4 = test: Cytotoxicity of MBD therapeutic peptides; type: cell-based, human; details: relative to equal dose of control MBD peptide, only p < 0.05 shown, 1-4 experiments
From the text: as §1

Hs578T = test: Cytotoxicity of MBD therapeutic peptides; type: cell-based; details: relative to equal dose of control MBD peptide, only p < 0.05 shown, 1-4 experiments
From the text: as §1

MDA-MB231 = test: Cytotoxicity of MBD therapeutic peptides; type: cell-based, human; details: relative to equal dose of control MBD peptide, only p < 0.05 shown, 1-4 experiments
From the text: as §1

MX-I = test: Cytotoxicity of MBD therapeutic peptides; type: cell-based, human; details: relative to equal dose of control MBD peptide, only p < 0.05 shown, 1-4 experiments
From the text: as §1

SR = test: Cytotoxicity of MBD therapeutic peptides; type: cell-based; details: relative to equal dose of control MBD peptide, only p < 0.05 shown, 1-4 experiments
MDA-MB435 = test: Cytotoxicity of MBD therapeutic peptides; type: cell-based; details: relative to equal dose of control MBD peptide, only p < 0.05 shown, 1-4 experiments
From the text: as §1

RPMI-8826 = test: Cytotoxicity of MBD therapeutic peptides; type: cell-based, human; details: relative to equal dose of control MBD peptide, only p < 0.05 shown, 1-4 experiments
From the text: as §1

cancer cells = test: Selective cytotoxicity, cancer cells versus normal counterparts; type: cell-based, human
From the text: as §1

Compound	% viability @ 48 hr/25 ug/ml peptide, CCRF-CEM (CCRF-CEM)	% viability @ 48 hr/25 ug/ml peptide, MCF-7 (MCF-7)	% viability @ 48 hr/25 ug/ml peptide, MOLT-4 (MOLT-4)	% viability @ 48 hr/25 ug/ml peptide, Hs578T (Hs578T)	% viability @ 48 hr/25 ug/ml peptide, MDA-MB231 (MDA-MB231)	% viability @ 48 hr/25 ug/ml peptide, MX-I (MX-I)	% viability @ 48 hr/25 ug/ml peptide, SR (SR)	% viability @ 48 hr/25 ug/ml peptide, MDA-MB435 (MDA-MB435)	% viability @ 48 hr/25 ug/ml peptide, RPMI-8826 (RPMI-8826)	Cytotoxic effect on cancer cells versus normal counterparts (in words) (cancer cells)
CC(C)[C@H](NC(=O)[C@H](C)NC(=O)[C@H](Cc1c[nH]c2ccccc12)NC(=O)[C@H](CS)NC(=O)[C@H](Cc1ccccc1)NC(=O)CNC(=O)[C@H](CCCNC(=N)N)NC(=O)[C@H](CCCCN)NC(=O)[C@H](CCCNC(=N)N)NC(=O)CNC(=O)[C@H](CCCCN)NC(=O)[C@H](CO)NC(=O)[C@@H]1CCCN1C(=O)[C@H](CCCNC(=N)N)NC(=O)[C@H](CS)NC(=O)[C@H](CCC(N)=O)NC(=O)[C@H](CCCCN)NC(=O)[C@H](CCCCN)NC(=O)[C@H](CCCCN)NC(=O)[C@H](Cc1ccc(O)cc1)NC(=O)[C@H](Cc1ccccc1)NC(=O)CNC(=O)[C@H](CCCCN)NC(=O)[C@H](CCCCN)NC(=O)CCCC[C@@H]1SC[C@@H]2NC(=O)N[C@@H]21)C(=O)N[C@@H](C)C(=O)N[C@@H](CCC(=O)O)C(=O)N[C@@H](Cc1ccc(O)cc1)C(=O)N[C@@H](C)C(=O)N[C@@H](CCCNC(=N)N)C(=O)N[C@H](C(=O)N[C@@H](CCC(N)=O)C(=O)N[C@@H](CCCCN)C(=O)N[C@@H](CCCNC(=N)N)C(=O)N[C@@H](CCCCN)C(=O)O)C(C)C [CSK] (Biotin-KKGFYKKKQCRPSKGRKRGFCWAVAEYARVQKRK-OH)	75.1 ± 4.5% and 85.5 ± 2.3%	21.1 ± 4.1% and 41.3 ± 5.8%	81.0 ± 7.1% and 54.8 ± 9.7%	50.2 ± 1.6% and 76.3 ± 0.6%						
CC(C)C[C@H](NC(=O)[C@H](C)NC(=O)[C@H](C)NC(=O)[C@H](Cc1c[nH]c2ccccc12)NC(=O)[C@H](CS)NC(=O)[C@H](Cc1ccccc1)NC(=O)CNC(=O)[C@H](CCCNC(=N)N)NC(=O)[C@H](CCCCN)NC(=O)[C@H](CCCNC(=N)N)NC(=O)CNC(=O)[C@H](CCCCN)NC(=O)[C@H](CO)NC(=O)[C@@H]1CCCN1C(=O)[C@H](CCCNC(=N)N)NC(=O)[C@H](CS)NC(=O)[C@H](CCC(N)=O)NC(=O)[C@H](CCCCN)NC(=O)[C@H](CCCCN)NC(=O)[C@H](CCCCN)NC(=O)[C@H](Cc1ccc(O)cc1)NC(=O)[C@H](Cc1ccccc1)NC(=O)CNC(=O)[C@H](CCCCN)NC(=O)[C@H](CCCCN)NC(=O)CCCC[C@@H]1SC[C@@H]2NC(=O)N[C@@H]21)C(=O)N[C@@H](CC(=O)O)C(=O)N[C@@H](Cc1c[nH]c2ccccc12)C(=O)N[C@@H](CO)C(=O)N[C@@H](Cc1c[nH]c2ccccc12)C(=O)N[C@@H](CC(C)C)C(=O)N[C@@H](CCC(N)=O)C(=O)N[C@H](C(=O)O)[C@@H](C)O [NEMO] (Biotin-KKGFYKKKQCRPSKGRKRGFCWAALDWSWLQT-OH)		77.0 ± 46.7%		81.3 ± 3.0%	79.0 ± 0.8%	59.1 ± 3.2%	56.9 ± 6.2%	67.4 ± 21.1% and 90.2 ± 3.6%		
CSCC[C@H](NC(=O)[C@H](CC(C)C)NC(=O)[C@H](CCCCN)NC(=O)[C@H](CCC(N)=O)NC(=O)[C@H](CCCNC(=N)N)NC(=O)[C@H](CCCCN)NC(=O)[C@H](CCCNC(=N)N)NC(=O)[C@H](CCC(N)=O)NC(=O)[C@@H](NC(=O)[C@@H]1CCCN1C(=O)[C@H](C)NC(=O)[C@H](Cc1c[nH]c2ccccc12)NC(=O)[C@H](CS)NC(=O)[C@H](Cc1ccccc1)NC(=O)CNC(=O)[C@H](CCCNC(=N)N)NC(=O)[C@H](CCCCN)NC(=O)[C@H](CCCNC(=N)N)NC(=O)CNC(=O)[C@H](CCCCN)NC(=O)[C@H](CO)NC(=O)[C@@H]1CCCN1C(=O)[C@H](CCCNC(=N)N)NC(=O)[C@H](CS)NC(=O)[C@H](CCC(N)=O)NC(=O)[C@H](CCCCN)NC(=O)[C@H](CCCCN)NC(=O)[C@H](CCCCN)NC(=O)[C@H](Cc1ccc(O)cc1)NC(=O)[C@H](Cc1ccccc1)NC(=O)CNC(=O)[C@H](CCCCN)NC(=O)[C@H](CCCCN)NC(=O)CCCC[C@@H]1SC[C@@H]2NC(=O)N[C@@H]21)C(C)C)C(=O)N1CCC[C@H]1C(=O)O [NFKB] (Biotin-KKGFYKKKQCRPSKGRKRGFCWAPVQRKRQKLMP-OH)	47.4 ± 13.9%	32.8 ± 17.7%	35.9 ± 6.8% and 22.5 ± 3.5%	36.3 ± 5.6% and 30.6 ± 2.7%	91.6 ± 6.1%	74.1 ± 6.1%		18.0 ± 1.6% and 29.6 ± 2.6%	64.6 ± 14.3%	
CC(C)C[C@H](NC(=O)[C@H](CC(C)C)NC(=O)[C@H](CCCCN)NC(=O)[C@H](Cc1c[nH]c2ccccc12)NC(=O)[C@@H](NC(=O)[C@H](CC(=O)O)NC(=O)[C@H](CO)NC(=O)[C@H](Cc1ccccc1)NC(=O)[C@@H](NC(=O)[C@H](CCC(=O)O)NC(=O)CCCC[C@@H]1SC[C@@H]2NC(=O)N[C@@H]21)[C@@H](C)O)C(C)C)C(=O)N[C@@H](CCCCN)C(=O)N[C@@H](CCCCN)C(=O)NCC(=O)N[C@@H](Cc1ccccc1)C(=O)N[C@@H](Cc1ccc(O)cc1)C(=O)N[C@@H](CCCCN)C(=O)N[C@@H](CCCCN)C(=O)N[C@@H](CCCCN)C(=O)N[C@@H](CCC(N)=O)C(=O)N[C@@H](CS)C(=O)N[C@@H](CCCNC(=N)N)C(=O)N1CCC[C@H]1C(=O)N[C@@H](CO)C(=O)N[C@@H](CCCCN)C(=O)NCC(=O)N[C@@H](CCCNC(=N)N)C(=O)N[C@@H](CCCCN)C(=O)N[C@@H](CCCNC(=N)N)C(=O)NCC(=O)N[C@@H](Cc1ccccc1)C(=O)N[C@@H](CS)C(=O)N[C@@H](Cc1c[nH]c2ccccc12)C(=O)O [PEP-2] (Biotin-ETFSDVWKLLKKGFYKKKQCRPSKGRKRGFCW-OH)		19.3 ± 6.3% and 33.5 ± 4.4% and 35.6 ± 5.7%	63.5 ± 7.7% and 57.9 ± 1.3% and 88.2 ± 2.6%	31.1 ± 3.0% and 33.5 ± 2.3%	40.7 ± 1.8%	6.8 ± 1.5% and 9.0 ± 0.6%	33.7 ± 16.0%	18.5 ± 1.0%	38.4 ± 4.2%	strong cytotoxic effect on cancer cells but not their human counterparts
Biotin-KKGFYKKKQCRPSKGRKRGFCWAVQTLLQQMQDKFQTMSDQI (cysteines drawn unpaired) [M9HSBP2]	92.6 ± 2.0%		94.2 ± 17.1%				88.9 ± 4.0% and 87.7 ± 6.7%		81.7 ± 2.9%	
